{
  "source": "paper PMC8403366",
  "about": "“Functional significance of gain-of-function H19 lncRNA in skeletal muscle differentiation and anti-obesity effects” (Genome Medicine, 2021)",
  "assay_type_in_all_cases": "in vivo, mouse",
  "key": {"[1]": {"tested_on": "C57BL/6 J mice", "experiment": "Oxymax/CLAMS metabolic cage study", "settings": "n = 4", "method": "(§1) Whole-body composition parameters were measured in male and female mice fed with either chow or HFD by Faxitron Specimen Radiography System (Faxitron X-Ray Corp.) to precisely measure total body fat and lean mass. Mice were housed in the Oxymax/CLAMS metabolic cage system (Columbus Instruments) for 4 days with ad libitum access to food and water. Volume of oxygen uptake (VO2) and exhaled carbon dioxide (VCO2), respiratory exchange ratio (RER), and activity were measured using the Oxymax system. RER is determined by dividing VCO2 produced by VO2 consumed."}, "[2]": {"tested_on": "WT C57BL/6 J mice", "experiment": "Muscle and fat weights and body composition of treated WT mice", "settings": "1 mg/kg i.p. every 3 days, 12 weeks", "method": "To determine the effects of H19-Rgof with a skeletal muscle enrichment peptide agrin (AGR-H19-Rgof) on WT C57BL/6 J or Lep^Ob/Ob mice, AGR-tagged oligonucleotides were used. The synthesis and sequence information of AGR-tagged RNA oligonucleotides are described in “Synthesis of H19-Rgof mimics, AGR-H19-Rgof mimics, and Pharmacokinetics (PK) studies.” AGR-Scr (conjugated to scramble oligonucleotides), H19-Rgof, or AGR-H19-Rgof mimics were injected at a dose of 1 mg/kg intraperitoneally into 3-week-old male and female mice. For AGR-H19-Rgof treatment in HFD (Cat # D12492, Research Diets, Inc.)-fed mice, male C57BL/6 J mice were fed with a HFD starting at 6 weeks of age. The AGR-H19-Rgof and AGR-Scr mimics were injected at a dose of 0.5 or 1 mg/kg intraperitoneally every other day starting 2 weeks after the initiation of HFD feeding. Body weight was measured weekly. The general health condition, grooming, and behavior of all animals were monitored daily, and injection sites were checked for signs of redness or edema.\nUnless otherwise indicated, mice were fasted for 4–6 h, anesthetized with isoflurane, and sacrificed by heart puncture. Tissues were dissected, weighed, and either dipped in liquid nitrogen or fixed for immunohistochemistry analysis. Individual muscle was dissected on one side of the body and weighed. Adipose tissues including white adipose tissue (WAT), visceral adipose tissue (VAT), and brown adipose tissue (BAT) were collected and weighed.\nas §1"}, "[3]": {"tested_on": "C57BL/6 J mice", "experiment": "Skeletal muscle immunostaining, fiber number/area, fiber typing, SDH staining", "method": "Skeletal muscles were collected and fixed in 10% Neutral Buffered Formalin at 4 °C for 1 h, followed by 10% sucrose/PBS overnight and then 18% sucrose/PBS overnight at 4 °C before being frozen embedded and sectioned. For immunostaining, frozen cross-sections of muscle were fixed in 4% paraformaldehyde for 5 min, washed, permeabilized with 0.5% Triton X-100, and stained with indicated primary antibodies. After extensive washing in PBS-0.05% Triton X-100, the secondary antibody was added and incubated for 1 h. After extensive washing in PBS-0.05% Triton X-100, nuclei were stained with Vectashield Antifade Mounting Medium with DAPI (Vector Laboratories). Images of laminin-stained fibers were taken by Zeiss microscope. Muscle cross-sectional area and fiber numbers were quantified by ImageJ. Immunostained tissue slides were obtained with Vectra Polaris Multispectral Imaging scanner (PerkinElmer). The quantification of IF staining density was performed by Image-pro plus 6.0 (Media Cybernetics) and calculated based on the average staining intensity and the percentage of positively stained cells. To quantify myotube fusion, fusion index was calculated by dividing the number of nuclei in MHC-positive myotubes with ≥ 3 nuclei by the total number of nuclei analyzed in a field.\nMuscle fiber-type immunofluorescence staining was performed with antibodies to MHC type I (supernatant, DSHB, BA-D5), MHC type IIa (supernatant, DSHB, SC-71), and MHC type IIb (supernatant, DSHB, BF-F3), as previously described. Type IIx fibers are not recognized by these antibodies and appeared black. Succinic dehydrogenase (SDH) staining was used to assess metabolic fiber type switch. Frozen cross-sections of muscle were allowed to equilibrate to room temperature and then incubated in a solution containing Nitroblue tetrazolium and sodium succinate for 20 min. Sections were washed 3 times in PBS, dehydrated in ethanol, and mounted with an aqueous mounting medium (Vector Laboratories). The antibodies used are listed in the Additional file 3: Table S3."}, "[4]": {"tested_on": "C57BL/6 J mice", "experiment": "Tissue distribution / pharmacokinetics of biotinylated mimics", "settings": "10 mg/kg i.p.; streptavidin immunohistochemistry, 24 hours post administration; n = 5", "method": "The H19-Rgof mimics and AGR-H19-Rgof mimics were synthesized by Bio-synthesis Inc. The linker that connected the peptide and RNA oligonucleotides was succinimidyl 4-(N-maleimidomethyl) cyclohexane-1-carboxylate (SMCC). RNA mimics sequences are listed in the Additional file 1: Table S1. To characterize the pharmacokinetics of H19-Rgof and AGR-H19-Rgof mimics, the biotinylated H19-Rgof and AGR-H19-Rgof mimics (10 mg/kg) were intraperitoneally injected into C57BL/6 J mice. The liver, kidneys, lungs, heart, and skeletal muscles of the animals were collected 3, 12, 24, 48, or 72 h post-injection (n = 5 animal per time point). Tissues were subjected to immunohistochemistry using streptavidin alkaline phosphatase conjugates and small RNA isolation in accordance with the manufacturer’s instructions using miRCURY™ RNA Isolation Kits (Qiagen). Immunostained tissue slides were obtained with a Vectra Polaris Multispectral Imaging scanner (PerkinElmer). The quantification of immunohistochemistry staining density was performed by Image-pro plus 6.0 (Media Cybernetics) and calculated based on the average staining intensity and the percentage of positively stained cells. Pharmacokinetic parameters were determined by nonlinear regression analysis."}, "[5]": {"settings": "HFD-fed mice, staining intensity, n = 8"}, "[6]": {"settings": "WT mice, 1 mg/kg i.p. every 3 days, 12 weeks, immunofluorescence, n = 8"}, "[7]": {"settings": "WT mice, MHC isoform immunolabeling, vs AGR-Scr, n = 5"}},
  "data": [
    {"substance": "N-terminal-ELTNEIPAELTNEIPA-Linker-5'-[2’-F-C][2’-F-U][2’-F-C][2’-F-U][2’-F-U][2’-F-U][2’-F-A][2’-F-U][2’-F-U][2’-F-U][2’-F-C][2’-F-U][2’-F-G][2’-F-A][2’-F-G][2’-F-C][2’-F-U][2’-F-U][2’-F-U][2’-F-C][2’-F-C][2’-F-U][2’-F-A][2’-F-U][2’-F-C][2’-F-U][2’-F-U][2’-F-U][2’-F-C][2’-F-C]-3' [AGR-H19-Rgof]", "values": [
      {"measurement": "overall food intake", "setting": "[1]; HFD-fed male mice, vs AGR-Scr", "result": "similar"},
      {"measurement": "energy expenditure", "setting": "[1]; HFD-fed mice, CLAMS", "result": "elevated"},
      {"measurement": "total activity", "setting": "[1]; HFD-fed mice, CLAMS, vs AGR-Scr", "result": "similar"},
      {"measurement": "activity per day/night", "setting": "[1]; WT male mice on chow, CLAMS, vs control", "result": "not significantly altered"},
      {"measurement": "total food intake", "setting": "[1]; WT male mice on chow, vs control", "result": "not significantly altered"},
      {"measurement": "respiratory exchange ratio (RER)", "setting": "[1]; WT mice on chow, CLAMS, vs AGR-Scr", "result": "elevated"},
      {"measurement": "body weight (body composition analysis)", "setting": "[2]; vs AGR-Scr", "result": "increased body weight"},
      {"measurement": "fat percentage (body composition analysis)", "setting": "[2]; vs AGR-Scr", "result": "reduced"},
      {"measurement": "fat weight (body composition analysis)", "setting": "[2]; vs AGR-Scr", "result": "reduced"},
      {"measurement": "lean weight (body composition analysis)", "setting": "[2]; vs AGR-Scr", "result": "increased"},
      {"measurement": "fat weight (BAT, WAT, VAT)", "setting": "[2]; vs AGR-Scr or H19-Rgof", "result": "reduced fat weight"},
      {"measurement": "muscle weight", "setting": "[2]; vs AGR-Scr or H19-Rgof", "result": "increased muscle weight"},
      {"measurement": "fiber area in TA", "setting": "[3]; HFD-fed mice, n = 10, 9", "result": "increased"},
      {"measurement": "Ub-DMD in TA", "setting": "[3]; [5]", "result": "reduced"},
      {"measurement": "expression of DMD in TA", "setting": "[3]; [5]", "result": "increased"},
      {"measurement": "DMD protein status in TA", "setting": "[3]; [6]", "result": "increased DMD protein status"},
      {"measurement": "DRP2 protein status in TA", "setting": "[3]; [6]", "result": "improved protein status"},
      {"measurement": "nNOS protein status in TA", "setting": "[3]; [6]", "result": "improved protein status"},
      {"measurement": "β-dystroglycan protein status in TA", "setting": "[3]; [6]", "result": "improved protein status"},
      {"measurement": "fast glycolytic fiber type IIb in QUAD, SOL and TA", "setting": "[3]; [7]", "result": "substantial shift toward"},
      {"measurement": "percentage of fast oxidative fiber type IIa in QUAD, SOL and TA", "setting": "[3]; [7]", "result": "reduced percentage"},
      {"measurement": "SDH+ fibers in QUAD", "setting": "[3]; WT mice, vs AGR-Scr, n = 5", "result": "reduced SDH+"},
      {"measurement": "SDH+ in TA and GAS", "setting": "[3]; WT mice, vs AGR-Scr, n = 5", "result": "minimally altered"},
      {"measurement": "SDH+ muscle staining in SOL and EDL", "setting": "[3]; WT mice, vs AGR-Scr, n = 5", "result": "increased SDH+"},
      {"measurement": "type I fibers in SOL", "setting": "[3]; WT mice, vs AGR-Scr, n = 5", "result": "marginally reduced"},
      {"measurement": "type II fibers in SOL", "setting": "[3]; WT mice, vs AGR-Scr, n = 5", "result": "increased"},
      {"measurement": "utrophin protein status in the quadriceps (QUAD)", "setting": "[3]; WT mice, vs AGR-Scr, n = 8", "result": "increased"},
      {"measurement": "muscle fiber area", "setting": "[3]; WT mice, vs Scr mimics", "result": "increased"},
      {"measurement": "number of muscle fibers (SOL, EDL, TA, GAS, QUAD)", "setting": "[3]; WT mice, vs Scr mimics, n = 5", "result": "increased number"},
      {"measurement": "accumulation in liver, kidneys and lungs", "setting": "[4]", "result": "minimal accumulation"},
      {"measurement": "biotin-labeled mimic detected in skeletal muscle", "setting": "[4]", "result": "substantial proportion"},
      {"measurement": "skeletal muscle distribution compared to unlabeled H19-Rgof", "setting": "[4]", "result": "significantly enhanced"}
    ]}
  ]
}
